Measurements reported in publication PMC5342446, “Healthy CD4^+ T lymphocytes are not affected by targeted therapies against the PI3K/Akt/mTOR pathway in T-cell acute lymphoblastic leukemia” (Oncotarget, 2016).
Residues, ends and D or L forms follow the SMILES beside them. *: point of attachment. Cbz = O=C(OCc1ccccc1)*; CH2F = FC*

How the values were obtained:
[1] = system: unstimulated T lymphocytes; test: MTT cell viability assay, unstimulated CD4+ T lymphocytes; assay type: cell-based; conditions: Homo sapiens, T-lymphocyte, 48 h, read-out: IC50 values of cells treated for 48 hours
Description: (§1) To determine how these inhibitors could affect the viability of the primary CD4^+ T lymphocytes (both unstimulated and stimulated) and T-ALL cells, we performed MTT assays. Cells were incubated for 48 h with the inhibitors, and then cell survival was analyzed (Figure 2A and Table 1). Except for the unstimulated T lymphocytes, BGT226 and the mTORC1/2 inhibitor Torin-2 turned out to be the most powerful drugs in these cells. For unstimulated T lymphocytes, there was no relevant inhibition for both drugs (IC50 > 2 μM).
(§2) Peripheral Blood CD4+ T lymphocytes from healthy donors were obtained with informed consent according to institutional guidelines and isolated with Ficoll-Paque and magnetic beads labelling protocols (Dynabeads, Monza MI, Italy). Whole blood or buffy coat were diluted with PBS containing 0.1% BSA and 0.6% Na-citrate or 2 mM EDTA (without Ca2+ and Mg2+) in ratio 1:1. Thirty-five ml of the diluted sample were layered over 15 ml of Ficoll-Paque medium and centrifuged at 600 g for 40 minutes at 20°C. The peripheral blood mononuclear cell (PMNC) layer was transferred to centrifuge tube containing three volumes of PBS and centrifuged at 100 g for 10 minutes at 20°C. This step was repeated twice, supernatant was discarded and cells were suspended in complete RPMI-1640 medium.
(§3) 500 μl PMNC were transferred into a test tube, at a density of 5 × 10^7 cells/ml supplemented with100 μl of heat inactivated FBS and antibody mix and incubated at 4°C for 20 minutes. Followed by addition of 4 ml isolation buffer and centrifuged at 350 g at 4°C for 8 minutes. The supernatant discarded, and the pelleted cells were suspended in 500 μl of isolation buffer, added with 500 μl of pre-warmed dynabeads and incubated for 15 min at 20°C. The cells bound to beads were resuspended using 4 ml isolation buffer. The supernatant containing the human CD4^+ T lymphocytes was obtained by placing the resuspended cells in magnet for 2 minutes. The human CD4^+ T lymphocytes were grown in complete RPMI-1640 medium with 10μg/ml phytohemagglutinin at a density of 1 × 10^6 cells/ml, in a CO2 incubator at 37°C for 24 h.
(§4) MTT (3-[4,5-Dimethylthythiazol-2-yl]-2,5-Diphenyltetrazolium Bromide) assays were performed to assess the sensitivity of cells to drugs, as described.

stimulated T lymphocytes = test: MTT cell viability assay, stimulated (phytohemagglutinin) CD4+ T lymphocytes; assay type: cell-based, human; conditions: for IC50: Homo sapiens, T-lymphocyte, 48 h, read-out: IC50 values of cells treated for 48 hours; for effect on cell viability, alone: 24 h
Description: as §1, with “Cells were incubated for 48 h with the inhibitors, and then cell survival was analyzed (Figure 2A and Table 1).” left out
as §2, §3, §4

MOLT-4 cells = test: MTT cell viability assay, MOLT-4; assay type: cell-based, human; conditions: for IC50: Homo sapiens, MOLT-4, MTT, 48 h, read-out: IC50 values of cells treated for 48 hours
Description: as §1, with “Cells were incubated for 48 h with the inhibitors, and then cell survival was analyzed (Figure 2A and Table 1).” left out
(§5) T-acute lymphoblastic leukemia cell lines obtained from Deutsche Sammlung von Mikroorganismen und Zellkulturen GmbH (Braunschweig, Germany). JURKAT and MOLT-4 were maintained in RPMI-1640 medium supplemented with 10% heat-inactivated fetal bovine serum (FBS), 100 units/ml penicillin and […] streptomycin at a density of 0.5 to 2 × 10^6 cells/ml and were incubated at 37°C with 5% CO2.
as §4

JURKAT cells = test: MTT cell viability assay, JURKAT; assay type: cell-based, human; conditions: for IC50: Homo sapiens, 48 h, read-out: IC50 values of cells treated for 48 hours; for effect on cell viability, alone: 24 h
Description: as §1, with “Cells were incubated for 48 h with the inhibitors, and then cell survival was analyzed (Figure 2A and Table 1).” left out
as §5, §4

Row | Compound | IC50 [1] [µM] | IC50 (stimulated T lymphocytes) [µM] | IC50 (MOLT-4 cells) [µM] | IC50 (JURKAT cells) [µM] | other results
1 | Nc1ccc(-c2ccc3ncc4ccc(=O)n(-c5cccc(C(F)(F)F)c5)c4c3c2)cn1 [Torin-2, 9-(6-aminopyridin-3-yl)-1-(3-(trifluoromethyl)phenyl)benzo[h][1,6]naphthyridin-2(1H)-one] | > 2 | 1.8 | 0.1 | 0.1 | 
2 | Cn1cnc(N)c2ncnc1-2 [3-MA, 3-Methyladenine] |  |  |  |  | effect on cell viability, alone (stimulated T lymphocytes; even at 10 μM): did not affect cell viability; effect on cell viability, alone (JURKAT cells; even at 10 μM): did not affect cell viability
3 | COc1ccc(-c2ccc3ncc4c(c3c2)n(-c2ccc(N3CCNCC3)c(C(F)(F)F)c2)c(=O)n4C)cn1 [BGT226] | > 2 | 1.61 | 0.06 | 0.08 | 
4 | COC(=O)C[C@H](NC(=O)[C@H](C)NC(=O)[C@@H](NC(=O)OCc1ccccc1)C(C)C)C(=O)CF [z-VAD-fmk] (Cbz-Val-Ala-Asp(OMe)-CH2F) |  |  |  |  | effect on cell viability, alone (stimulated T lymphocytes; 25 μM): no relevant effect on cell viability; effect on cell viability, alone (MOLT-4 cells; MOLT-4, alone, 25 μM, 24 h, MTT): no relevant effect on cell viability
5 | FC(F)c1nc2ccccc2n1-c1nc(N2CCOCC2)nc(N2CCOCC2)n1 [ZSTK474] | > 2 | > 2 | 0.52 | 0.95 | 
6 | NC1(c2ccc(-c3nc4ccn5c(=O)[nH]nc5c4cc3-c3ccccc3)cc2)CCC1 [MK-2206] | > 2 | > 2 | 1.58 | > 2 | 
7 | CO/C1=C\C(C)=C\[C@@H](C)[C@@H](O)[C@@H](C)C/C(C)=C/C=C/[C@H](OC)[C@@H]([C@@H](C)[C@@H](O)[C@H](C)[C@@]2(O)C[C@@H](O)[C@H](C)[C@@H](C(C)C)O2)OC1=O [Bafilomycin A1] |  |  |  |  | effect on cell viability, alone (stimulated T lymphocytes; even at 4 μM): did not affect cell viability; effect on cell viability, alone (JURKAT cells; even at 4 μM): did not affect cell viability
